# Experimental data taken from US11000537B2, “Composition comprising novel ginsenoside” (AMOREPACIFIC CORPORATION, priority 2018, dated 2021).
# Experiments:
# [1] = system: ACC (acetyl-CoA carboxylase); assay: ACC gene expression in HepG2 (qPCR); type: cell-based; conditions: 24 hours
# Description: (§1) The hepatocyte cell line HepG2 purchased from the International Center for Biological Resources (ATCC) were placed in Dulbecco's Modified Eagle's Medium (Sigma) to which 10% fetal bovine serum (Hyclone) and 1% penicillin/streptomycin (Sigma) were added, and cultured in a 5% CO2 incubator. As a positive control, fenofibrate (FF, Sigma), which is used as an antihyperlipidemic drug, was used, and 7 kinds of ginsenosides (GS #01-GS #06, GS #10; 10 μM each) extracted from Ginseng seed were used for the experiment. After 24 hours of treatment, cells were collected, RNA was extracted using Trizol™ reagent (Thermo Fisher Scientific), and cDNA was synthesized using RevertAid™ 1st strand cDNA synthesis kit (Thermo Fisher Scientific). Bio-Rad's CFX96 real-time quantitative PCR (qPCR) instrument was used to observe the expression of the genes SREBP1c (sterol-regulatory element binding protein 1c), ACC (acetyl-CoA carboxylase) and FAS (Fatty acid synthase), which induces fat synthesis or accumulation.
# α-glucosidase = α-glucosidase enzyme activity inhibition; type: biochemical
# Description: (§2) As a polysaccharide degrading enzyme, pancreatic α-amylase and α-glucosidase were purchased from Sigma, and the enzyme activity of novel ginsenoside GS #10, which is an example of the present disclosure, isolated from Ginseng seed extract and ginsenosides GS #01-GS #06, which are comparative examples of the present disclosure, was measured. In order to measure α-amylase activity, enzyme solution was prepared by dissolving BSA 0.1 g, 0.01 g/L NaN3, α-amylase 0.2857 g in 50 mL of PBS (phosphate buffered saline), and 5 mM of p-nitrophenyl-α-D-maltopentoglycoside was dissolved in another PBS to make a substrate solution. 0.1 mL of the test substance was added to 0.5 mL of the enzyme solution, and then the initial absorbance was measured at 405 nm. After adding 0.5 mL of the substrate solution and reacting it for 5 minutes, the absorbance was measured again. The change in enzyme activity was measured by the difference in absorbance between the two reactions. The method for measuring α-glucosidase activity is the same as the method for measuring α-amylase activity, and differs only in α-glucosidase and substrate (p-nitrophenyl-α-D-glucopyranoside). As a positive control to observe the inhibition of enzyme activity, acarbose, which is an α-amylase inhibitor and α-glucosidase inhibitor derived from wheat seed sold by Sigma, was used.
# [2] = system: FAS (Fatty acid synthase); assay: FAS gene expression in HepG2 (qPCR); type: cell-based; conditions: 24 hours
# Description: as §1, with “As a positive control, fenofibrate (FF, Sigma), which is used as an antihyperlipidemic drug, was used, and 7 kinds of ginsenosides (GS #01-GS #06, GS #10; 10 μM each) extracted from Ginseng seed were used for the experiment.” left out
# pancreatic α-amylase = molecular target: T1, pancreatic α-amylase (Sus scrofa, UniProt P00690); assay: α-amylase enzyme activity inhibition; type: biochemical
# T1 construct: purchased Sigma
# T1 sequence (P00690 16-511): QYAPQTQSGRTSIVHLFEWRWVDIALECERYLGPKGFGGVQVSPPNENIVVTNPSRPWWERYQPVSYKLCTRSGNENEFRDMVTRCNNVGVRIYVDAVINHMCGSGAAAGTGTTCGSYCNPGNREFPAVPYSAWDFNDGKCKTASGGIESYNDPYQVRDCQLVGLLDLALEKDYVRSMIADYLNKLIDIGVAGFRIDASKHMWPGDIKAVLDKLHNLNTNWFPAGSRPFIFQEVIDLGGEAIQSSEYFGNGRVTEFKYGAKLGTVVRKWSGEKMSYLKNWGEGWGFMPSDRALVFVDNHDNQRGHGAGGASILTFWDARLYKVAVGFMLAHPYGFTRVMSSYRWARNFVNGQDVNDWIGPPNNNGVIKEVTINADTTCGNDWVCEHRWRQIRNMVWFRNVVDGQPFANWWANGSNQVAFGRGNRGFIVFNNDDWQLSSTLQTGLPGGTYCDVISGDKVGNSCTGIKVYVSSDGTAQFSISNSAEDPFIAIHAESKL
# Description: as §2
# [3] = system: PPARγ (Peroxisome proliferator-activated receptor gamma); assay: PPARγ adipocyte marker gene expression (qPCR); type: cell-based
# Description: The adipocyte cell 3T3-L1 purchased from the International Center for Biological Resources (ATCC) were placed in Dulbecco's Modified Eagle's Medium (Sigma) to which 10% fetal bovine serum (Hyclone) and 1% penicillin/streptomycin (Sigma) were added, and cultured in a 5% CO2 incubator. In order to differentiate preadipocytes into adipocytes, the cells were filled in a culture plate and cultured. After 48 hours, the cells were replaced with Dulbecco's modified eagle medium (DMEM) to which 10% of fetal bovine serum (Hyclone), 0.5 mM of 3-isobutyl-1-methylxanthine (Sigma), 1 μM of dexamethasone (Sigma), 5 μg/ml of insulin (Sigma), 1% of penicillin/streptomycin (Sigma) were added and further cultured for 48 hours. During 48 hours of culture, seven types of ginsenoside reagents (GS #01-GS #06, GS #10) extracted from Ginseng seeds were treated at 10 μM each to affect adipocyte differentiation. […]
# After the differentiation of adipocytes in the same manner as above, the expressions of PPARγ (Peroxisome proliferator-activated receptor gamma), aP2 (Adipocyte protein 2) and CD36 were observed as adipocyte marker genes. […] Bio-Rad's CFX96 real-time quantitative PCR (qPCR) instrument was used to quantify the expression levels of each gene. […]
smiles,measurement,setting,value
"CC1(C)C(=O)CC[C@@]2(C)C1[C@@H](O[C@H]1OC(CO)[C@H](O)C(O)C1O[C@H]1OC(CO)[C@H](O)C(O)C1O)C[C@]1(C)C2C[C@@H](O)C2C([C@]3(C)CC[C@H](C(C)(C)O)O3)CC[C@]21C (stereo partly drawn) [GS #10, (20S,24R)-6-O-β-D-glucopyranosyl(1→2)-β-D-glucopyranoside-dammar-3-one-20,24-epoxy-6a,12b,25-triol]",ACC expression inhibitory effect,"[1]; 10 μM, HepG2, FIG. 19",significantly higher expression inhibitory effect
same,ACC expression inhibitory effect,"[1]; 1, 10 μM, compared with Rg1, Rg3, Rb1, FIG. 24",far superior in lipid metabolism inhibitory effect
same,α-glucosidase activity inhibitory effect,"α-glucosidase; 1, 10 μM, compared with ginsenosides Rg1, Rg3, Rb1, FIG. 15",much superior
same,α-glucosidase activity inhibitory effect,"α-glucosidase; Test Example 1, FIG. 12, ginseng seed ginsenosides compared",high inhibitory effect on α-glucosidase activity
same,FAS expression inhibitory effect,"[2]; 10 μM, HepG2, FIG. 20",significantly higher expression inhibitory effect
same,FAS expression inhibitory effect,"[2]; 1, 10 μM, compared with Rg1, Rg3, Rb1, FIG. 25",far superior in lipid metabolism inhibitory effect
same,α-amylase activity inhibitory effect,"pancreatic α-amylase; 1, 10 μM, compared with ginsenosides Rg1, Rg3, Rb1, FIG. 14",much superior
same,α-amylase activity inhibitory effect,"pancreatic α-amylase; Test Example 1, FIG. 11, ginseng seed ginsenosides compared",most excellent α-amylase activity inhibitory effect
same,"adipocyte differentiation inhibition, PPARγ gene expression","[3]; 1 μM and 10 μM, compared with Rg1, Rg3, Rb1, FIG. 39",far superior in adipocyte differentiation inhibition
same,"adipocyte differentiation inhibition, PPARγ gene expression","[3]; 10 μM, FIG. 35",more effective in inhibiting the adipocyte differentiation
